Experimental data as given in US10238641B2, “Materials and methods for diagnosis, prevention and/or treatment of stress disorders and conditions associated with A-beta peptide aggregation” (The United States of America as represented by the …, priority 2008, dated 2019).

Key:
[1] = tested on: sensorimotor abilities in mice; assay: Rotarod test; format: in vivo; settings: two weeks of cotinine 1 mg/kg and 5 mg/kg
Method: At the end of the behavioral testing for FC, mice treated for two weeks with vehicle, cotinine 1 mg/kg and 5 mg/kg were tested in the rotarod as follows. The rotarod test was performed in an apparatus consisting of a 3 cm in diameter rod that was started at 4 rpm, accelerating up to 40 rpm for 5 min. Mice were tested for the time spent on the rod during each trial for a total of four trails per day. Testing during each trial was finished when the mouse fell off the rod and onto a spring-cushioned lever. The results are expressed as latency to fall in seconds (time spent on the rod) with 8 mice/group/treatment.
To discard a confounding effect of cotinine on learning due to changes in motor coordination and fatigue, we tested mice in the rotarod test after 2 weeks of treatment with vehicle or cotinine at the doses indicated in the figure below.

[2] = tested on: rat cortical cells exposed to Aβ; assay: Aβ toxicity assay, double calcein-AM and PI staining; format: cell-based; settings: 5 μM Aβ + 10 μM cotinine, 24 h; Aβ alone 63%
Method: Primary cortical embryonic rat neurons were incubated with 5 μM Aβ in the presence or absence of various concentrations cotinine for […] as described (Echeverria et al. (2005)). Cell viability was assessed using the MTT assay (Sigma). As an alternative approach cell viability after exposure to Aβ and cotinine was assessed using the vital dye calcein-AM (green fluorescence) to stain live cells and propidium iodide to stain dead cells. MTT values were normalized to control values considered 100%.
In the double calcein-AM and Propidium iodide (PI) staining, PI binds to nucleic acid and is commonly used for identifying dead cells, since it is impermeable to the membranes of viable cells. Calcein-AM is converted to calcein by live cells, binds to the cellular calcium, and stains the cells by emitting a green fluorescence. […] After incubation cells were washed with PBS and the number of calcein-stained (green) and nuclei stained with PI (red) were analyzed by fluorescence microscopy. More than 600 cells per condition were analyzed in several 20× focal planes and recorded.
To investigate the effect of cotinine on Aβ neurotoxicity, rat cortical cells were grown in conditions that permitted us to obtain a neuron-enriched culture (around 95% neuron and 5% glial cells) for 7-10 days. […] After 24 h, cell survival was assessed by using MTT and PI and calcein-AM cell viability assays.

Arc = assay: BDNF-induced Arc expression in primary cortical neurons, Western blot; format: cell-based; settings: BDNF plus cotinine 2 h, 7 DIV cortical neurons
Source text: Then cells were washed with PBS and disrupted by sonication in lysis buffer. Cell extracts were separated by SDS-PAGE and analyzed by Western blot with antibodies against Arc and β-tubulin, which was used as a control (FIG. 16B). The histogram represents the mean±SEM of experiments performed in triplicate. […] BDNF, brain-derived neurotrophic factor.

Aβ1-42 peptide = target: T1, Aβ1-42 peptide (Homo sapiens, UniProt P05067); assay: Aβ oligomerization, Western blot and dot-blot immunoassays (6E10, A11 antibodies); format: biochemical
T1 construct: Aβ1-42 peptide was obtained from American Peptide; purchased American Peptide (Sunnyvale, Calif., USA)
Method: Aβ1-42 peptide was obtained from American Peptide (Sunnyvale, Calif., USA). To obtain Aβ1-42 oligomer solutions, we used a previously described protocol that results in solutions containing stable oligomers, but not fibrils for several days (Necula et al. (2007)). The lyophilized peptide was dissolved in 1 volume of 1 mM NaOH and then diluted in phosphate-buffered saline (PBS) pH 7.4 to the desired concentrations.
For the analysis of the inhibition of Aβ1-42 oligomerization/aggregation reaction, we incubated Aβ (100 μM, pH 7.4) prepared in the absence or presence of ascending concentrations of cotinine (100, 200 and 500 μM) for 7 days at 25° C. and analyzed on days 2, 5, 6 and 7. Aβ oligomerization was analyzed by Western blot and dot-blot immunoassays using antibody 6E10, which preferentially recognizes the monomeric form of Aβ and the A11 antibody that specifically recognizes the oligomeric form of the peptide but not Aβ monomers, protofibrils or fibrils.
The western blot analysis was performed as described before (Necula et al. (2007)). 10 μl-aliquots of each oligomerization reaction containing Aβ alone or Aβ plus cotinine were mixed with 5×SDS sample buffer and loaded in a 4-20% Tris-HCl gel and analyzed by Western blot using the 6E10 antibody.
The dot-blot analysis was performed as described (Necula et al. (2007)). 4-8 μl of the oligomerization mixture was applied onto nitrocellulose membranes and allowed to dry, after which the membranes were blocked for 1 h at room temperature with 10% skim milk in TBS containing 0.05% Tween 20 (TBS-T). […] After being washed with TBS-T, membranes were incubated with horseradish peroxidase-conjugated secondary antibody (1:5000) for 1 h, and visualized using enhanced chemiluminescence (Dura ECL detection kit, Pharmacia Biotech, Piscataway, N.J., USA), scanned on the Kodak Image Station 440CF, and analyzed using Molecular Imaging Software version 4.0 (Rochester, N.Y., USA) and NIH ImageJ software. The Aβ solutions for each particular day were analyzed in the same membrane and developed simultaneously. […]

transgenic Tg6799 mice = assay: Circular platform test of reference memory; format: in vivo; settings: cotinine 2.5 mg/kg via gavage for two months
Method: Mice of 2.5 months of age were treated or not with cotinine 2.5 mg/kg via gavage for two months and after tested in the circular platform test. In this test the number of errors to escape a 69 cm diameter circular platform containing 16 holes along its perimeter was determined in a single daily trial (300 s maximum) over 8 days of testing. Only one hole leads to an escape box, which remains the same for any given animal. To control for olfactory cures, the escape hole was relocated after each animal's trial and the maze cleaned with a dilute vinegar solution. Tg, transgenic Tg6799 mice, NT, control wild type littermate mice. N=11 mice by group.

[3] = tested on: sensorimotor abilities in mice; assay: Open field activity test; format: in vivo; settings: data not shown

T1 sequence (P05067 672-713 limits assumed): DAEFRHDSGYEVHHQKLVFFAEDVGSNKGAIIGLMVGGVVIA

CN1C(=O)CC[C@H]1c1cccnc1 [cotinine]
sensorimotor abilities, latency to fall (rotarod) [1]: did not affect sensorimotor abilities | cell survival, % of vehicle-treated control cells (PI and calcein-AM) [2]: 83% | BDNF-induced expression of Arc (Arc): enhances the BDNF-induced expression of Arc | levels of Aβ monomers (Western blot, 6E10) (Aβ1-42 peptide; 100 μM Aβ1-42, cotinine 100, 200, 500 μM, 5 and 7 days at 25° C.): increased the levels of Aβ monomers | concentration of Aβ oligomers (A11 dot-blot) (Aβ1-42 peptide; 100 μM Aβ1-42, cotinine 100, 200, 500 μM, days 2 and 6 at RT): decreased the concentration of Aβ oligomers | 6E10 immunoreactivity (dot-blot) (Aβ1-42 peptide; 100 μM Aβ1-42, increasing cotinine, days 2 and 6 at RT): higher immunoreactivity for the 6E10 antibody | reference memory in the circular platform (transgenic Tg6799 mice): prevents the loss of reference memory | sensorimotor abilities (open field activity test) [3]: no changes in sensorimotor abilities were detected
